Data as given in publication PMC9571290, “Preliminary Structure–Activity Relationship Study of the MMV Pathogen Box Compound MMV675968 (2,4-Diaminoquinazoline) Unveils Novel Inhibitors of Trypanosoma brucei brucei” (Molecules, 2022).
Read-outs that look alike come from different tables or passages of the source.

What was measured:
[1] = system: bloodstream forms of Trypanosoma brucei brucei; assay: resazurin-based antitrypanosomal inhibition assay; type: cell-based; conditions: for pIC50 T. b. b.: Table 3
Method: Parasites were axenically cultivated in sterile vented flasks containing complete Hirumi’s modified Iscove’s medium 9 (HMI-9) [500 mL IMDM (Iscove’s modified Dulbecco’s medium) (Gibco, Waltham, MA, USA) supplemented with 10% (v/v) heat-inactivated fetal bovine serum (HIFBS) (Sigma Aldrich), 10% (v/v) serum plus (Sigma Aldrich), HMI-9 supplement (1 mM hypoxanthine, 0.16 mM thymidine, 50 µM bathocuproine disulfonic acid, 1.5 mM cysteine, 1.25 Mm pyruvic acid, 0.2 mM 2-mercaptoethanol (Sigma Aldrich)), and 1% (v/v) penicillin–streptomycin (Sigma Aldrich) and incubated at 37 °C in a 5% CO2 atmosphere.
The in vitro inhibitory potency of the 400 MMVPB compounds against bloodstream forms of Trypanosoma brucei brucei was evaluated using the resazurin-based inhibition assay as previously described. Briefly, parasites at their mid-logarithmic growth phase were counted, and the cell density was adjusted with fresh complete HMI-9 medium to 2 × 10^5 trypanosomes per mL. Then, 90 µL of parasite suspension was then distributed into the wells of 96-well flat-bottomed plates containing 10 µL of compounds for a final test concentration of 10 µM. […] Each assay plate was set up in duplicate and repeated two times. The percent parasite inhibition was determined for each compound based on fluorescence readouts relative to the mean fluorescence of negative control wells.
y = 100/[1+ 10^(logIC50/99-x)H], where H is the hill coefficient or slope factor [60].

in vitro = conditions: African green monkey
Method: (§1) The resulting pellet was resuspended and counted in a Neubauer chamber in the presence of trypan blue to exclude nonviable cells colored in blue. Once the cell load was estimated, they were either used for the next passage in a new flask or processed for the cytotoxicity assay.
(§2) Briefly, Vero cells at a density of 10^4 cells per well were plated in 100 µL of complete DMEM and incubated overnight to allow cell attachment. Plates were then controlled under an inverted fluorescence microscope (Lumascope LS520) to ensure adherence, sterility and cell integrity. Thereafter, culture medium from each well was carefully emptied, and plates were filled with 90 µL of fresh complete medium followed by the addition of 10 µL of serial 5-fold dilutions of compound solutions. […] Fluorescence was then read using a Magelan Infinite M200 fluorescence multiwell plate reader (Tecan) with excitation and emission wavelengths of 530 and 590 nm, respectively. The percentage of cell viability was calculated from readouts, and the median cytotoxic concentration (CC50) for each compound was deduced from concentration–response curves using GraphPad Prism 8.0 software as described above. Selectivity indexes were then determined for each test substance as follows: SI = CC50(Vero cells)/IC50(T. brucei brucei).

Vero cells = assay: cytotoxicity against Vero cells (resazurin viability assay); conditions: read-out: CC50 Vero; Table 3
Method: as §1, §2

[2] = Trypanosoma brucei, Table 4, analogs of MMV675968, solid material, read-out: IC50 ± SD T. b. b.
[3] = Trypanosoma brucei, Table 4, negative log of IC50 in molar, read-out: pIC50 T. b. b. (converted)
[4] = Table 3, MMVPB compounds with known potency against other diseases, read-out: IC50 ± SD T. b. b.

SMILES | IC50 [1, 4] [µM] | pIC50 T. b. b. ([1]; negative log of IC50 in molar) | CC50 (Vero cells) [µM] | other results
COc1ccc(NCc2ccc3nc(N)nc(N)c3c2Cl)cc1OC [Analog 2] | – | – | – | IC50 [1, 2]: 2.4 ± 0.07 µM; IC50 [1, 3]: 2.4 µM; CC50 at 48 h (in vitro): 18.2 ± 3.08 µM
COc1ccccc1NCc1ccc2nc(N)nc(N)c2c1Cl [Analog 3] | – | – | – | IC50 [1, 2]: 3.2 ± 0.03 µM; IC50 [1, 3]: 3.24 µM; CC50 at 48 h (in vitro): 20.4 ± 0.7 µM
COc1ccc(NCc2ccc3nc(N)nc(N)c3c2Cl)cc1 [Analog 4] | – | – | – | IC50 [1, 2]: 2.5 ± 0.15 µM; IC50 [1, 3]: 2.51 µM; CC50 at 48 h (in vitro): 16.9 ± 0.2 µM
Cc1ccccc1NCc1ccc2nc(N)nc(N)c2c1Cl [Analog 5] | – | – | – | IC50 [1, 2]: 2.3 ± 0.2 µM; IC50 [1, 3]: 2.29 µM; CC50 at 48 h (in vitro): > 100 µM
COc1ccc(NCc2ccc3nc(N)nc(N)c3c2)cc1OC [Analog 6] | – | – | – | IC50 [1, 2]: 0.56 ± 0.07 µM; IC50 [1, 3]: 0.562 µM; CC50 at 48 h (in vitro): > 100 µM
COc1ccc(NCc2ccc3nc(N)nc(N)c3c2)cc1 [Analog 8] | – | – | – | IC50 [1, 2]: 0.25 ± 0.01 µM; IC50 [1, 3]: 0.251 µM; CC50 at 48 h (in vitro): 30.9 ± 2.3 µM
Cc1ccccc1NCc1ccc2nc(N)nc(N)c2c1 [Analog 9] | – | – | – | IC50 [1, 2]: 0.19 ± 0.003 µM; IC50 [1, 3]: 0.191 µM; CC50 at 48 h (in vitro): 22 ± 1.3 µM
COc1ccc(NC(=O)c2ccc3nc(N)nc(N)c3c2)cc1 [Analog 11] | – | – | – | IC50 [1, 2]: 4 ± 1.3 µM; IC50 [1, 3]: 3.98 µM; CC50 at 48 h (in vitro): 22.9 ± 0.5 µM
COc1ccc(NC(=O)c2ccc3nc(N)nc(N)c3c2)cc1OC [Analog 12] | – | – | – | IC50 [1, 2]: > 10 µM; CC50 at 48 h (in vitro): > 100 µM
COc1ccccc1NC(=O)c1ccc2nc(N)nc(N)c2c1 [Analog 13] | – | – | – | IC50 [1, 2]: 3.2 ± 0.3 µM; IC50 [1, 3]: 3.24 µM; CC50 at 48 h (in vitro): > 100 µM
COc1cccc(CNC(=O)c2ccc3nc(N)nc(N)c3c2)c1 [Analog 14] | – | – | – | IC50 [1, 2]: 2.5 ± 0.13 µM; IC50 [1, 3]: 2.51 µM; CC50 at 48 h (in vitro): > 100 µM
Cc1ccccc1NC(=O)c1ccc2nc(N)nc(N)c2c1 [Analog 15] | – | – | – | IC50 [1, 2]: > 10 µM; CC50 at 48 h (in vitro): > 100 µM
COc1ccccc1NCc1cnc(N)nc1N [Analog 16] | – | – | – | IC50 [1, 2]: > 10 µM; CC50 at 48 h (in vitro): > 100 µM
COc1cc(NC(C)CCCN)c2ncccc2c1 (stereo not drawn) [MMV000023, Primaquine, reference compound] | – | – | – | IC50 ([1]; Trypanosoma brucei, Table 1, reference drugs included in MMVPB, read-out: IC50 ± SD T. b. b.): 8.4 ± 0.01 µM; IC50 ([1]; Trypanosoma brucei, Table 1, negative log of IC50 in molar, read-out: pIC50 T. b. b. (converted)): 8.51 µM
CNCCC(Oc1ccc(C(F)(F)F)cc1)c1ccccc1 (stereo not drawn) [MMV001561, fluoxetine, reference compound] | – | – | – | CC50 at 48 h (in vitro): 41.5 ± 1 µM
CN(C)c1cc(NC(=O)Nc2ccccc2)c2ccccc2n1 [MMV006901] | 8.45 ± 0.05 | 5.07 | 14.6 ± 0.02 | –
COc1cc(-c2cc(-c3ccc(S(C)(=O)=O)cc3)cnc2N)ccc1O [MMV010576] | 1.5 ± 0.3 | 5.82 | > 100 | –
COc1ccc(CCN2CCC(NCc3cccc(N(C)C)c3)CC2)cc1 [MMV011511] | 8.94 ± 0.7 | 5.05 | > 100 | –
Cc1cc(Nc2ccncc2)n2nc(C)c(-c3ccccc3Cl)c2n1 [MMV016136] | 8.61 ± 0.3 | 5.06 | – | –
COc1ccc(-c2cncc3ccc(C(=O)NCCCn4ccnc4)nc23)cc1 [MMV020670] | 1.9 ± 0.02 | 5.72 | – | –
CN1CCC(NCc2cccc(-c3ccc(S(=O)(=O)NCc4ccccc4)cc3)c2)CC1 [MMV022029] | 1.7 ± 0.7 | 5.76 | 13.1 ± 0.2 | –
O=C(Nc1ccc(N2CCNCC2)cc1)c1ccn2ncc(-c3cccc(Cl)c3)c2n1 [MMV022478] | 1.7 ± 0.01 | 5.76 | 11.42 ± 0.07 | –
Nc1nccc2ccc(-c3ccc4nccn4c3)cc12 [MMV023233] | 8.43 ± 0.06 | 5.07 | 29.8 ± 0.7 | –
c1cncc(NCc2ccc(-c3cc4ccncc4cc3OC3CCNCC3)s2)c1 [MMV023969] | 8.09 ± 0.3 | 5.09 | 26.3 ± 0.4 | –
O=C(Nc1ccccc1)c1ccc(-c2cc3ccncc3cc2OC2CCNCC2)s1 [MMV024035] | 1.8 ± 0.1 | 5.74 | 35.75 ± 0.08 | –
Cc1ccc2[nH]c(C3CCCNC3)c(-c3ccncc3)c2c1 (stereo not drawn) [MMV024311] | 9.78 ± 0.2 | 5.00 | – | –
O=C(Nc1ccc(N2CCNCC2)nc1)c1oc(-c2ccccc2)nc1C(F)(F)F [MMV024937] | 1.4 ± 0.5 | 5.85 | 14.6 ± 0.6 | –

SMILES | IC50 [1, 4] [µM] | pIC50 T. b. b. ([1]; negative log of IC50 in molar) | CC50 (Vero cells) [µM] | other results
OCCc1ccc(Nc2nccc(-c3nnc4ccccn34)n2)cc1 [MMV028694] | 1.8 ± 0.1 | 5.74 | 10.36 ± 0.1 | –
CC(=O)N1CCc2cc3nc(C)cc(C)c3cc21 [MMV054312] | 1.29 ± 0.42 | 5.88 | > 100 | –
Cc1cc(C)nc(-n2nc(C)cc2Nc2ccccc2)n1 [MMV062221] | 1.7 ± 0.6 | 5.76 | – | –
O=C(C(Cc1c[nH]c2ccccc12)NS(=O)(=O)c1ccc(Cl)cc1)N1CCCCC1 (stereo not drawn) [MMV085210] | 0.9 ± 0.1 | – | > 100 | –
CCOC(=O)c1c(NC(=O)c2c(F)c(F)c(F)c(F)c2F)sc(C(N)=O)c1C [MMV153413] | 1.7 ± 0.1 | 5.76 | > 100 | –
CC(C)(C)c1cnc(NC(=O)c2ccccc2O)s1 [MMV495543] | 0.7 ± 0.25 | – | – | –
Brc1cncc(-c2cc(NCCCn3ccnc3)nc(-c3ccccc3)n2)c1 [MMV661713] | 1.9 ± 0.02 | 5.72 | > 100 | –
O=C(NCCN1CCCC1)c1cc(NCCCCN2CCC(F)(F)CC2)nc2ccc(Cl)cc12 [MMV667494] | 1.3 ± 0.5 | 5.88 | > 100 | –
COc1ccc(N(CCc2cccc(C)n2)C(=O)C2CCCCC2)cc1 [MMV675996] | 0.8 ± 0.02 | – | – | –
CC(Oc1ccccc1)C(=O)Nc1nc(-c2ccccn2)cs1 (stereo not drawn) [MMV676411] | 9.44 ± 0.09 | 5.02 | – | –
O=C(Nc1nc(-c2ccccn2)cs1)c1cncn1-c1ccccc1 [MMV676512] | 1.9 ± 0.07 | 5.72 | – | –
NC(=O)c1cc(-c2ccsc2)ccc1OCCOc1ccccc1 [MMV687138] | 0.5 ± 0.01 | – | > 100 | –
Nc1nc2cc(-c3cncc(Oc4ccc(F)cc4)c3)ccc2[nH]1 [MMV687248] | 0.5 ± 0.07 | – | > 100 | –
Cn1c(=O)c2c(S(C)(=O)=O)snc2n(C)c1=O [MMV687251] | 1.9 ± 0.01 | 5.72 | 6.4 ± 2 | –
COc1cccc(-c2nc3c(N4CCCC4)cccc3n2CC2CCCN2)n1 (stereo not drawn) [MMV687703] | 1.7 ± 0.06 | 5.76 | > 100 | –
Cc1cnc(N2CCN[C@@H](Cc3ccccc3)C2)nc1Oc1ccc(-n2ccnc2)cc1 [MMV687765] | 2.3 ± 0.3 | 5.64 | > 100 | –
O=C(Nc1ccc(C(F)(F)F)c(C(F)(F)F)c1)c1cc(Cl)ccc1O [MMV687807] | 0.5 ± 0.04 | – | 11 ± 1.3 | –
CN1CCN(CCCOc2ncc(Nc3ncc(-c4ccc(C(F)(F)F)c(F)c4)nc3C(N)=O)cn2)CC1 [MMV687812] | 1.7 ± 0.1 | 5.76 | 2.66 ± 0.3 | –
CCc1ccc(S(=O)(=O)Nc2cc(CN3CCN(CCC(C)C)CC3)ccc2C)cc1 [MMV688124] | 2.9 ± 0.08 | 5.53 | > 100 | –
CC(C)n1nc(-c2cc3c(Cl)cccc3[nH]2)c2c(N)ncnc21 [MMV688417] | 4.38 ± 0.9 | 5.36 | 13.6 ± 2.9 | –
CN1CCC(c2cc(-c3ccncc3)c(-c3ccc(F)cc3)[nH]2)CC1 [MMV688703] | 3.18 ± 1.3 | 5.49 | – | –
CS(=O)(=O)c1ccc(C(=O)N(CC2CCCO2)c2nc3ccccc3s2)cc1[N+](=O)[O-] (stereo not drawn) [MMV688761] | 8.33 ± 0.09 | 5.08 | > 100 | –
CNc1nnc(Sc2cnn(-c3ccccc3)c(=O)c2Cl)s1 [MMV688763] | 0.8 ± 0.1 | – | 8.14 ± 0.01 | –
Cc1[nH]c2ccccc2c1C(c1cccs1)N1CCN(C)CC1 (stereo not drawn) [MMV688768] | 8.36 ± 0.08 | 5.07 | > 100 | –
CCOc1ccc2cc(-c3nn(CC4CCN(C)CC4)c4ncnc(N)c34)ccc2c1 [MMV688854] | 8.5 ± 0.06 | 5.07 | 13.4 ± 1.5 | –
COc1cc([C@@H]2c3cc4c(cc3[C@H](O)[C@H]3COC(=O)[C@H]23)OCO4)cc(OC)c1OC [Podophyllotoxin, reference compound] | – | – | – | CC50 at 48 h (in vitro): 0.43 ± 0.14 µM
